Patent publication US7029680B1, “Delivery of immunogenic molecules vis HBsAg particles” (Yissum Research Development Company of the Hebrew …, priority 1998, dated 2006)

B1: IL-12 alone: cytokine IL-12 without HBsAg (control) (protein, UniProt P29459 23-219; P29460 23-328, looked up)
Interleukin-12 subunit alpha: RNLPVATPDPGMFPCLHHSQNLLRAVSNMLQKARQTLEFYPCTSEEIDHEDITKDKTSTVEACLPLELTKNESCLNSRETSFITNGSCLASRKTSFMMALCLSSIYEDLKMYQVEFKTMNAKLLMDPKRQIFLDQNMLAVIDELMQALNFNSETVPQKSSLEEPDFYKTKIKLCILLHAFRIRAVTIDRVMSYLNAS
Interleukin-12 subunit beta: IWELKKDVYVVELDWYPDAPGEMVVLTCDTPEEDGITWTLDQSSEVLGSGKTLTIQVKEFGDAGQYTCHKGGEVLSHSLLLLHKKEDGIWSTDILKDQKEPKNKTFLRCEAKNYSGRFTCWWLTTISTDLTFSVKSSRGSSDPQGVTCGAATLSAERVRGDNKEYEYSVECQEDSACPAAEESLPIEVMVDAVHKLKYENYTSSFFIRDIIKPDPPKNLQLKPLKNSRQVEVSWEYPDTWSTPHSYFSLTFCVQVQGKSKREKKDRVFTDKTSATVICRKNASISVRAQDRYYSSSWSEWASVPCS

What was measured:
[1] = tested on: OVA-specific cells (EG7); test: Anti-OVA CTL response, 51Cr release cytolytic assay after immunization; assay type: in vivo; conditions: F1 (H-2d/b) mice; lysis of EG7 vs EL4; FIG. 4B
Procedure: (§1) OVA/HBsAg particles, prepared as described above, were isolated, washed, and adjusted to the appropriate concentration for immunization. The following compositions were injected into F1 (H-2d/b) mice, each in 50 μl PBS (phosphate buffered saline): (a) 1 μg HBsAg particles (without adjuvants); (b) 100 μg native OVA; and (c) 1 μg HBsAg/OVA, as described in Section A above.
(§2) For evaluation of the CTL response, spleen or lymph nodes cells, obtained from immunized mice seven days to five weeks post-vaccination, were specifically restimulated in vitro for five days with syngeneic, irradiated OVA- or HBsAg-peptide-pulsed tumor cells. (The latter cells had been incubated in vitro with the recombinant HBsAg particles for 2 hours at 37° C.) The cells were harvested and tested in a 4-hour ^51Cr release cytolytic assay against antigen-bearing and non-antigen-bearing syngeneic targets. Lysis of cells specific for the HBsAg S protein (P815/S), or for OVA (EG7), was compared to that for nonspecific cells (P815 or EL4, respectively). The EG7 cells are EL4 cells which have been stably transfected with an expression plasmid encoding OVA.

[2] = tested on: OVA; test: Anti-OVA humoral (serum antibody) response after immunization; assay type: in vivo; conditions: F1 (H-2d/b) mice, FIG. 4D
Procedure: as §1, §2

[3] = tested on: EL4 cells which had been pulsed with HBsAg; test: Anti-HBsAg CTL response in 'nonresponder' mice, 51Cr release assay; assay type: in vivo, 'nonresponder' mice (H-2^b C57BL/6); conditions: nonresponder C57BL/6 mice; splenocytes restimulated with HBsAg-pulsed RBL5 cells; FIG. 6A-G
Procedure: To produce the data shown in FIG. 6, several cytokines were loaded into HBsAg particles, following a protocol such as outlined above for OVA, with incubation carried out at 45° C. It was estimated that approximately 10 ng of cytokine was incorporated per μg of HBsAg particles (about 1% incorporation) at this temperature. Groups of ‘nonresponder’ mice (H-2^b C57BL/6) were immunized with HBsAg particles, with and without incorporated cytokines, or with cytokine alone (FIG. 6G), in the amounts shown below: • A: 1 μg ‘naked’ HBsAg particles • B–F: 1 μg HBsAg/cytokine, where the cytokine was: • (b) IL-12, (c) IFN-γ, (d) IL-2, (e) IL-4, • (f) IL-1 β peptide • G: 1 μg IL-12 (control) • H: 1 μg HBsAg/IL-12
After 12 days, splenocytes from the immunized mice were restimulated in vitro for 5 days with HBsAg-pulsed, syngeneic irradiated RBL5 lymphoma cells. For control experiment H, the splenocytes were restimulated with non-pulsed, syngeneic RBL5 cells. The splenocytes (effector cells) were then cocultured with ^51Cr-labeled target cells, and the CTL response was measured by a standard ^51Cr release assay. The target cells were either non-pulsed EL4 cells (open circles in FIGS. 6A–G), or EL4 cells which had been pulsed with HBsAg (solid circles).

Molecule	anti-OVA CTL response [1]	anti-OVA humoral response [2]	anti-HBsAg CTL response [3]
ovalbumin [OVA alone, native ovalbumin protein, model antigen]	no CTL response and none	elicited a humoral response	
B1			no CTL response
